Consider ten molecules from patent publication US20070004639A1, “Methods and compositions for treating Parkinson's disease” (BodyBio, Inc., priority 2005, published 2007).

Read-outs that look alike come from different tables or passages of the source.

Series [1] deals with Parkinson's Disease. Put plainly: Parkinson's patients case studies (oral nutrients plus IV infusions).
Series [2] concerns Parkinson's Disease. The following applies: 800 mild, early Parkinson's Disease patients; cited from earlier work.
Series [3] has as its system Parkinson's Disease. The following applies: in vivo; cited from earlier work.
Series [4] relates to Parkinson's Disease. Particulars: after five years; cited from earlier work.
Series [5] has as its system Parkinson's Disease. The following applies: cited from earlier work.
Series [6] has as its system mouse model of Bulbar ALS. Particulars: oral administration; cited from earlier work.
Series [7] relates to Parkinson's Disease. Particulars: human, in vivo; cited from earlier work.
For series [8] the following is noted: cited from earlier work.
Series [9] has as its system Parkinson's Disease. The following applies: in vivo; cited from earlier work. The source holds these as a separate data set.
The conditions of series [10]: in vivo; cited from earlier work.

Consider `N[C@@H](CCC(=O)N[C@@H](CS)C(=O)NCC(=O)O)C(=O)O` [Glutathione, N—(N-L-gamma-glutamyl-L-cysteinyl)glycine], for which, in the series with Parkinson's Disease [1] (Case Study 1, IV Glutathione push once weekly, after 6 months), the tremor entry is reported as “slightly improved”.

For the molecule `C#CCN(C)[C@H](C)Cc1ccccc1` [Selegiline], in the series on Parkinson's Disease [2], the “delay of the progression of motor symptoms” value is listed as “about nine”. Take `N[C@@H](Cc1ccc(O)c(O)c1)C(=O)O` [levodopa, Levodopa]: the “tolerance of drug by patient” value in the series on Parkinson's Disease [1] (Case Study 6, before protocol) is “intolerant”.

As to `CCCN[C@H]1CCc2nc(N)sc2C1` [pramipexole], in the series on Parkinson's Disease [3], the “patients completely free from motor complications” value is listed as 72%, the “patients in whom dyskinesias developed” value is recorded as 10% and the “patients who developed motor complications” value is 28%. For the molecule `CCCN(CCC)CCc1cccc2c1CC(=O)N2` [ropinerole], in the series with Parkinson's Disease [4], the “patients who developed dyskinesia” value is 20% and the “severe form among those who developed dyskinesia” value is given as 8%. Moreover, the effectiveness in comparison entry in the series with Parkinson's Disease [5] (early stage Parkinson's Disease, versus levodopa) is given as “as effective as levodopa”. Also, the effectiveness in comparison entry with Parkinson's Disease [5] (versus bromocriptine (Parlodel)) is “more effective than bromocriptine”. As to `CCCC(=O)[O-].[Na+]` [sodium butyrate], the neurological phenotypes result in [6] is recorded as “successfully ameliorated”. `Cc1ccc(C(=O)c2cc(O)c(O)c([N+](=O)[O-])c2)cc1` [tolcapone]: in the series on Parkinson's Disease [7], the “deaths from liver failure” value was “three”.

Take Phosphatidylcholine [PC]: the oral absorption result in series [8] (taken orally with meals) is listed as “up to 90 % per 24 hrs”. The “time over which blood levels peak” value in [8] (taken orally) was 8 to 12 h. In the case of botulinum toxin, the effect on tremors entry with Parkinson's Disease [9] is listed as “without any substantial reduction in tremors”. Take carbidopa/levodopa: in [10], the “half-life compared with dopamine agonists” value is recorded as “shorter half-life”.
